# Read-outs that look alike come from different tables or passages of the source.
# Experiments:
# [1] = cited from earlier work; for Log Know (P Log) / Know P: triazole fungicides, Table 01; for Know or P / Log Know or Log P: strobirulins, Table 2
# [2] = cited from earlier work; for Classification (dissociation) / Dissociation Constant - Pka: triazole fungicides, Table 01; for ionization: strobirulins, Table 2
# [3] = cited from earlier work; for Solubility in water: triazole fungicides, Table 01; for Solubility-water: strobirulins, Table 2
# [4] = Eiq risk indicator of pesticides (Kovach et al.; Eiq Calculator); conditions: for Total Eiq (% of picoxystrobin): as percentage of the picoxystrobin value
# Method: With all this complexity, the question that arises is: is there any risk indicator for the use of pesticides that is accurate, simple to use and easily understandable? So far, the best available option is the Eiq proposed by Kovach et al. (1992).
# This indicator is calculated from a total of […] characteristics of pesticides: dermal toxicity, chronic toxicity, systemicity, toxicity to fish, leaching potential, potential for movement on the soil surface, toxicity to birds, time to degrade 50% in soil, toxicity to bees, toxicity to beneficial arthropods and time to degrade 50% on plant surface.
# The total Eiq is characteristic of each active ingredient and corresponds to the average of three other more specific coefficients calculated from subgroups of the aforementioned characteristics: Eiq Ecological, Eiq for the worker and Eiq for the consumer.
# The Eiq values are dimensionless and can be determined for 1 kg of the active ingredient (to compare the safety of different compounds) or per hectare treated (considers the variable effective dose of use). There are applications that do the calculation automatically such as Eiq Calculator (Cornell—CALS, 2018).
# [5] = cited from earlier work; for Total Equi: per kg of compound, Table 2; for Consumer Eiq / Ecological Eiq / Total Eiq / Worker Eiq: for 1 kg of the compound
# [6] = strobirulins, Table 2; cited from earlier work
# [7] = system: complex of diseases in soybean; test: LD50 of strobilurins, populations of different locations and dates of collection; conditions: mean over locations and dates of collection
# Method: Additional tests were conducted with populations with extreme values to verify the correlation of ED50 values with field efficiency and confirm this elevation in values. The same tests were installed in order to compare the most used strobilurins in soybean crops.
# All estimated LD50 values were below 1 μg. mL−1, regardless of product, location and date of collection.
# That said, it can be stated that the combination of triazole with greater intrinsic activity to strobilurin with the same characteristics makes OFA-T 0143/17 (prothioconazole+picoxystrobin) an excellent tool to assist in the integrated management of diseases in the soybean crop.
structure (smiles),measurement,setting,value
O=c1c2cc(F)ccc2nc(-n2cncn2)n1-c1ccc(Cl)cc1Cl [fluquinconazole],Log Know (P Log),[1],3.24
same,Classification (dissociation),[2],Strong acid
same,Dissociation Constant - Pka,[2],0.9
Fc1ccc([C@]2(Cn3cncn3)O[C@H]2c2ccccc2Cl)cc1 (racemic) [epoxiconazole],Log Know (P Log),[1],3.3
same,Classification (dissociation),[2],No dissociation
Clc1ccc(C2(Cn3cncn3)CC(Br)CO2)c(Cl)c1 (stereo not drawn) [bromuconazole],Log Know (P Log),[1],3.24
same,Classification (dissociation),[2],Strong acid
same,Dissociation Constant - Pka,[2],2.75
same,Solubility in water,[3],48.3 mg/L or PPM
CCCCC(O)(Cn1cncn1)c1ccc(Cl)cc1Cl (stereo not drawn) [hexaconazole],Log Know (P Log),[1],3.9
same,Classification (dissociation),[2],Strong acid
Clc1ccc(C2(Cn3cncn3)OCCO2)c(Cl)c1 [azaconazole],Know P,[1],229.1
same,Log Know (P Log),[1],2.36
same,Classification (dissociation),[2],Very weak base
same,Dissociation Constant - Pka,[2],3
same,Solubility in water,[3],300 mg/L or PPM
CCCC1COC(Cn2cncn2)(c2ccc(Cl)cc2Cl)O1 (stereo not drawn) [propiconazole],Log Know (P Log),[1],3.72
same,Classification (dissociation),[2],Very weak base
same,Dissociation Constant - Pka,[2],1.09
same,Solubility in water,[3],150 mg/L or PPM
CC1(C)CCC(=Cc2ccc(Cl)cc2)C1(O)Cn1cncn1 (stereo not drawn) [triticonazole],Log Know (P Log),[1],3.29
same,Classification (dissociation),[2],No dissociation
CON=C(C(=O)OC)c1ccccc1CON=C(C)c1cccc(C(F)(F)F)c1 [trifloxystrobin],Know or P,[1],31623 dimensionless
same,ionization,[2],Non-ionizable
same,Total Equi,[4],10.4 Units/Mol
same,"more Eiq units required so that 10 g of the compound remained in the plant matrix, versus picoxystrobin",[4]; 14 days,35.54%
CO/C=C(/C(=O)OC)c1ccccc1Oc1cc(Oc2ccccc2C#N)ncn1 [azoxystrobin],Know or P,[1],316 dimensionless
same,Log Know or Log P,[1],2.5 dimensionless
same,ionization,[2],Non-ionizable
same,Total Equi,[5],23.0 Units/Kg
same,RL50 in plants,[6],7.0 days
same,Total Eiq (% of picoxystrobin),[4]; Units/Kg,196.6%
same,Total Eiq (% of picoxystrobin),[4]; Units/Mol,215.7%
same,Total Eiq,"[4]; per Mol of compound, Table 2",9.3 Units/Mol
same,LD50 mean,[7],0.23 µg/mL
same,Solubility-water,[3],6.7 mg/L or PPM
N#CC(CCc1ccc(Cl)cc1)(Cn1cncn1)c1ccccc1 (stereo not drawn) [fenbuconazole],Log Know (P Log),[1],3.79
same,Classification (dissociation),[2],No dissociation
same,Solubility in water,[3],2.47 mg/L or PPM
"CO/C=C(/C(=O)OC)c1ccccc1COc1cccc(C(F)(F)F)n1 [picoxystrobin, (E)-3-methoxy-2-{2-[6-(trifluoromethyl)-2-pyridyloxymethyl]phenyl}methyl acrylate]",Know or P,[1],3981 dimensionless
same,Log Know or Log P,[1],3.6 dimensionless
same,ionization,[2],Non-ionizable
same,Consumer Eiq,[5],5.1
same,Ecological Eiq,[5],25.0
same,Total Eiq,[5],11.7
same,Worker Eiq,[5],5.1
same,Total Equi,[5],11.7 Units/Kg
same,RL50 in plants,[6],6.9 days
same,Total Eiq (% of picoxystrobin),[4]; Units/Kg,100.0%
same,Total Eiq (% of picoxystrobin),[4]; Units/Mol,100.0%
same,Consumer Eiq,[4]; dose of 80g a.i./ha,0.408
same,Ecological Eiq,[4]; dose of 80g a.i./ha,2.00
same,Total Eiq,[4]; dose of 80g a.i./ha,0.936
same,Worker Eiq,[4]; dose of 80g a.i./ha,0.408
same,Total Eiq,"[4]; per Mol of compound, Table 2",4.3 Units/Mol
same,"average reduction of risks for consumers, workers and the environment versus azoxystrobin",[4]; per kg,49.13%
same,"average reduction of risks for consumers, workers and the environment versus pyraclostrobin",[4]; per kg,49.35%
same,"average reduction of risks for consumers, workers and the environment versus trifloxystrobin",[4]; per kg,54.12%
same,total Eiq value expressed as a percentage of the value observed for azoxystrobin,[4]; per kg,50.87%
same,total Eiq value expressed as a percentage of the value observed for pyraclostrobin,[4]; per kg,50.65%
same,total Eiq value expressed as a percentage of the value observed for trifloxystrobin,[4]; per kg,45.88%
same,LD50 mean,[7],0.18 µg/mL
same,Solubility-water,[3],3.1 mg/L or PPM
CC(C)(C)C(O)/C(=C\c1ccc(Cl)cc1)n1cncn1 (stereo not drawn) [uniconazole],Log Know (P Log),[1],3.84
same,Classification (dissociation),[2],Very weak acid
same,Dissociation Constant - Pka,[2],13.07
same,Solubility in water,[3],8.41 mg/L or PPM
CC(C)(C)C(O)(CCc1ccc(Cl)cc1)Cn1cncn1 (stereo not drawn) [tebuconazole],Log Know (P Log),[1],3.7
same,Classification (dissociation),[2],Weak acid
CCCC(Cn1cncn1)c1ccc(Cl)cc1Cl (stereo not drawn) [penconazole],Classification (dissociation),[2],Very weak base
same,Dissociation Constant - Pka,[2],1.51
FC(F)C(F)(F)OCC(Cn1cncn1)c1ccc(Cl)cc1Cl (stereo not drawn) [tetraconazole],Log Know (P Log),[1],3.56
same,Classification (dissociation),[2],Strong acid
CC1COC(Cn2cncn2)(c2ccc(Oc3ccc(Cl)cc3)cc2Cl)O1 (stereo not drawn) [diphenococonazole],Log Know (P Log),[1],4.36
same,Classification (dissociation),[2],Strong acid
same,Dissociation Constant - Pka,[2],1.07
"OC(Cc1ccccc1Cl)(Cn1nc[nH]c1=S)C1(Cl)CC1 (racemic) [prothioconazole, (RS)-2-[2-(1-chlorocyclopropyl)-3-(2-chlorophenyl)-2-hydroxypropyl]-2,4-dihydro1,2,4-triazole-3-thione]",Know P,[1],100
same,Log Know (P Log),[1],2
same,Classification (dissociation),[2],Weak acid
same,Dissociation Constant - Pka,[2],6.9
same,Consumer Eiq,[5],10.5
same,Ecological Eiq,[5],55.5
same,Total Eiq,[5],26.9
same,Worker Eiq,[5],13.9
same,Consumer Eiq,[4]; dose of 96 g a.i./ha,1.008
same,Ecological Eiq,[4]; dose of 96 g a.i./ha,5.33
same,Total Eiq,[4]; dose of 96 g a.i./ha,2.58
same,Worker Eiq,[4]; dose of 96 g a.i./ha,1.33
same,Solubility in water,[3],22.5 mg/L or PPM
CC1(C)CCC(Cc2ccc(Cl)cc2)C1(O)Cn1cncn1 (stereo not drawn) [metconazole],Log Know (P Log),[1],3.85
same,Classification (dissociation),[2],Very weak acid
CC(C1CC1)C(O)(Cn1cncn1)c1ccc(Cl)cc1 (stereo not drawn) [cyproconazole],Log Know (P Log),[1],3.09
same,Classification (dissociation),[2],No dissociation
COC(=O)N(OC)c1ccccc1COc1ccn(-c2ccc(Cl)cc2)n1 [pyraclostrobin],Know or P,[1],9772 dimensionless
same,ionization,[2],Non-ionizable
same,Total Equi,[5],23.1 Units/Kg
same,RL50 in plants,[6],4.7 days
same,Total Eiq (% of picoxystrobin),[4]; Units/Kg,197.4%
same,Total Eiq (% of picoxystrobin),[4]; Units/Mol,208.5%
same,Total Eiq,"[4]; per Mol of compound, Table 2",9.0 Units/Mol
same,LD50 mean,[7],0.21 µg/mL
same,Solubility-water,[3],1.5 mg/L or PPM
